Assay results: patent US11021457B2, “Class of isoindolone-imide ring-1,3-dione-2-ene compounds, composition and use thereof” (WIGEN BIOMEDICINE TECHNOLOGY (SHANGHAI) CO., LTD., priority 2017, dated 2021)

What was measured:
Assay type in all cases: cell-based
SU-DHL6 = experiment: Inhibition of tumor cell proliferation, CellTiter-Glo, SU-DHL6; conditions: compound concentration 50 μM, 72 hours; for cell survival rate (% of control) at 50 µM: Homo sapiens, SU-DHL-6, read-out: Inhibitory activity against proliferation (cell survival rate) SU-DHL6
Description: (§1) For various cell lines, the corresponding complete medium was used, and culture was carried out in an incubator at 37° C. with 5% CO2. The cells were counted, and inoculated into a 96-well plate at 2000-10000 cells/100 μl per well according to the cell volume and growth rate. The suspended cells were treated immediately, and the adherent cells were treated after adherence. The CellTiter-Glo method was used to detect the changes in cell viability 72 hours after the administration, and the cell survival rate at different concentrations was calculated by a formula: Survival rate (%)=(RLU of treatment well−RLU of blank well)/(RLU of control well−RLU of blank well)×100.
(§2) Method for expressing the inhibitory activity of the compounds against the proliferation of tumor cells: Evaluation was made based on the cell survival rate at a compound concentration of 50 μM. 60≤survival rate (%)<90 is considered to have low inhibitory activity against the proliferation of tumor cells (+); 30<survival rate (%)≤60 is considered to have moderate inhibitory activity against the proliferation of tumor cells (++); and survival rate (%)≤30 is considered to have high inhibitory activity against the proliferation of tumor cells (+++).

RPMI-8226 = experiment: Inhibition of tumor cell proliferation, CellTiter-Glo, RPMI-8226; conditions: compound concentration 50 μM, 72 hours; for cell survival rate (% of control) at 50 µM: Homo sapiens, RPMI-8226, read-out: Inhibitory activity against proliferation (cell survival rate) RPMI-8226
Description: as §1, §2

K562 = experiment: Inhibition of tumor cell proliferation, CellTiter-Glo, K562; conditions: compound concentration 50 μM, 72 hours; for cell survival rate (%) at 50 µM: Homo sapiens, K562, read-out: Inhibitory activity against proliferation (cell survival rate) K562
Description: as §1, §2

A549 = experiment: Inhibition of tumor cell proliferation, CellTiter-Glo, A549; conditions: compound concentration 50 μM, 72 hours; for cell survival rate (% of control) at 50 µM: Homo sapiens, A549, read-out: Inhibitory activity against proliferation (cell survival rate) A549
Description: as §1, §2

MDA-MB-453 = experiment: Inhibition of tumor cell proliferation, CellTiter-Glo, MDA-MB-453; conditions: compound concentration 50 μM, 72 hours; for cell survival rate (%) at 50 µM: Homo sapiens, MDA-MB-453, read-out: Inhibitory activity against proliferation (cell survival rate) MDA-MB-453
Description: as §1, §2

BxPC-3 = experiment: Inhibition of tumor cell proliferation, CellTiter-Glo, BxPC-3; conditions: compound concentration 50 μM, 72 hours; for cell survival rate (%) at 50 µM: Homo sapiens, BXPC-3, read-out: Inhibitory activity against proliferation (cell survival rate) BxPC-3
Description: as §1, §2

Compound	Inhibitory activity against proliferation (cell survival rate) SU-DHL6 (SU-DHL6)	Inhibitory activity against proliferation (cell survival rate) RPMI-8226 (RPMI-8226)	Inhibitory activity against proliferation (cell survival rate) K562 (K562)	Inhibitory activity against proliferation (cell survival rate) A549 (A549)	Inhibitory activity against proliferation (cell survival rate) MDA-MB-453 (MDA-MB-453)	Inhibitory activity against proliferation (cell survival rate) BxPC-3 (BxPC-3)	cell survival rate (% of control) at 50 µM (SU-DHL6)	cell survival rate (% of control) at 50 µM (RPMI-8226)	cell survival rate (%) at 50 µM (K562)	cell survival rate (% of control) at 50 µM (A549)	cell survival rate (%) at 50 µM (MDA-MB-453)	cell survival rate (%) at 50 µM (BxPC-3)
O=C1CCC(N2C(=O)c3cccc(NC(=O)c4cnc(NC=C5C(=O)CC(c6ccccc6)CC5=O)s4)c3C2=O)C(=O)N1 (centres unmarked) [Compound 63]	++ (30<survival rate (%)≤60)	++ (30<survival rate (%)≤60)	+++ (survival rate (%)≤30)	+ (60≤survival rate (%)<90)	+ (60≤survival rate (%)<90)	+ (60≤survival rate (%)<90)						
O=C1CCC(N2Cc3c(N/C=C4\C(=O)Nc5cc(C(F)(F)F)ccc5C4=O)cccc3C2=O)C(=O)N1 (centres unmarked) [Compound 137]							≤ 30%	≤ 30%	30 to 60%	60 to 90%	60 to 90%	30 to 60%
O=C1CCC(N2Cc3c(NCCOCCOCCOCCN4CCN(CCNC=C5C(=O)CC(c6ccccc6)CC5=O)CC4)cccc3C2=O)C(=O)N1 (centres unmarked) [Compound 133]	+ (60≤survival rate (%)<90)	+ (60≤survival rate (%)<90)	++ (30<survival rate (%)≤60)	+ (60≤survival rate (%)<90)	+ (60≤survival rate (%)<90)	++ (30<survival rate (%)≤60)						
COc1ccc(C2CC(=O)C(=CNc3cccc4c3CN(C3CCC(=O)NC3=O)C4=O)C(=O)C2)cc1 (centres unmarked) [Compound 32]	+++ (survival rate (%)≤30)	+++ (survival rate (%)≤30)	+++ (survival rate (%)≤30)	+++ (survival rate (%)≤30)	++ (30<survival rate (%)≤60)	+ (60≤survival rate (%)<90)						
O=C1CCC(N2Cc3c(NC=C4C(=O)CC(c5ccccc5Cc5ccccc5)CC4=O)cccc3C2=O)C(=O)N1 (centres unmarked) [Compound 35]	+++ (survival rate (%)≤30)	+++ (survival rate (%)≤30)	+++ (survival rate (%)≤30)	+++ (survival rate (%)≤30)	++ (30<survival rate (%)≤60)	++ (30<survival rate (%)≤60)						
O=C1CCC(N2Cc3c(NC(=O)CCC(=O)N4CCN(CCNC=C5C(=O)CC(c6ccccc6)CC5=O)CC4)cccc3C2=O)C(=O)N1 (centres unmarked) [Compound 91]	++ (30<survival rate (%)≤60)	++ (30<survival rate (%)≤60)	++ (30<survival rate (%)≤60)	++ (30<survival rate (%)≤60)	++ (30<survival rate (%)≤60)	+ (60≤survival rate (%)<90)						
O=C1CCC(N2Cc3c(NC(=O)C4CCN(CCNC=C5C(=O)CC(c6ccccc6)CC5=O)CC4)cccc3C2=O)C(=O)N1 (centres unmarked) [Compound 61]	++ (30<survival rate (%)≤60)	+ (60≤survival rate (%)<90)	+ (60≤survival rate (%)<90)	+ (60≤survival rate (%)<90)	+++ (survival rate (%)≤30)	+ (60≤survival rate (%)<90)						
CN(C)c1ccc(Br)c(C2CC(=O)C(=CNc3cccc4c3CN(C3CCC(=O)NC3=O)C4=O)C(=O)C2)c1 (centres unmarked) [Compound 31]	+++ (survival rate (%)≤30)	+++ (survival rate (%)≤30)	+++ (survival rate (%)≤30)	+++ (survival rate (%)≤30)	+++ (survival rate (%)≤30)	+ (60≤survival rate (%)<90)						
O=C1CCC(N2Cc3c(NC=C4C(=O)CC(c5ncnc6sccc56)CC4=O)cccc3C2=O)C(=O)N1 (centres unmarked) [Compound 130]	+++ (survival rate (%)≤30)	++ (30<survival rate (%)≤60)	++ (30<survival rate (%)≤60)	+++ (survival rate (%)≤30)	+++ (survival rate (%)≤30)	+ (60≤survival rate (%)<90)						
O=C1CCC(N2Cc3c(NC=C4C(=O)CC(c5cccc6sccc56)CC4=O)cccc3C2=O)C(=O)N1 (centres unmarked) [Compound 27]	+++ (survival rate (%)≤30)	+++ (survival rate (%)≤30)	+++ (survival rate (%)≤30)	+++ (survival rate (%)≤30)	+++ (survival rate (%)≤30)	+ (60≤survival rate (%)<90)						
O=C1CCC(N2Cc3c(N/C=C4\C(=O)CC(c5ccccc5)OC4=O)cccc3C2=O)C(=O)N1 (centres unmarked) [Compound 112]							60 to 90%	30 to 60%	30 to 60%	60 to 90%	30 to 60%	30 to 60%
O=C1CCC(N2Cc3ccc(NC=C4C(=O)CC(c5ccccc5)CC4=O)cc3C2=O)C(=O)N1 (centres unmarked) [Compound 10]	+ (60≤survival rate (%)<90)	++ (30<survival rate (%)≤60)	++ (30<survival rate (%)≤60)	+ (60≤survival rate (%)<90)	+ (60≤survival rate (%)<90)	++ (30<survival rate (%)≤60)						
CC(C)Cn1cccc1C1CC(=O)C(=CNc2cccc3c2CN(C2CCC(=O)NC2=O)C3=O)C(=O)C1 (centres unmarked) [Compound 116]	+ (60≤survival rate (%)<90)	++ (30<survival rate (%)≤60)	++ (30<survival rate (%)≤60)	++ (30<survival rate (%)≤60)	++ (30<survival rate (%)≤60)	++ (30<survival rate (%)≤60)						
O=C1CCC(N2C(=O)c3ccc(NC=C4C(=O)CC(c5ccccc5)CC4=O)cc3C2=O)C(=O)N1 (centres unmarked) [Compound 9]	+ (60≤survival rate (%)<90)	++ (30<survival rate (%)≤60)	++ (30<survival rate (%)≤60)	++ (30<survival rate (%)≤60)	+ (60≤survival rate (%)<90)	++ (30<survival rate (%)≤60)						
O=C1CCC(N2Cc3c(NC=C4C(=O)NC(c5ccccc5)NC4=O)cccc3C2=O)C(=O)N1 (centres unmarked) [Compound 115]							30 to 60%	60 to 90%	30 to 60%	30 to 60%	≤ 30%	60 to 90%
O=C1CCC(N2Cc3c(NC=C4C(=O)CC(C5CCCCC5)CC4=O)cccc3C2=O)C(=O)N1 (centres unmarked) [Compound 131]	+ (60≤survival rate (%)<90)	+++ (survival rate (%)≤30)	++ (30<survival rate (%)≤60)		+++ (survival rate (%)≤30)	+ (60≤survival rate (%)<90)						
